“And” between values parts separate entries of the source, which are not always exact repeats. Equal values may be shown once. Toxic doses and inconclusive results are not listed.
Test system: P388 leukemia ip, CD2F1 mice, survival T/C
Test: NCI In Vivo Anticancer Drug Screen. Data for tumor model P388 Leukemia (intraperitoneal) in CD2F1 (CDF1) mice
Details: endpoint: median survival time, higher = longer survival
Procedure, shortened: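 Mice carrying the transplanted tumor received test compound or vehicle. Survival was recorded in each group, and the value is the treated-group measurement divided by that of the vehicle-treated control group.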

[1] = dose: 50.0 mg/kg/injection, schedule: Q01DX005 (ip), vehicle: saline with Tween-80
[2] = dose: 100.0 mg/kg/injection, schedule: Q04DX003 (ip), vehicle: Klucel (hydroxypropylcellulose) (HPC)
[3] = dose: 200.0 mg/kg/injection, schedule: Q04DX003 (ip), vehicle: Klucel (hydroxypropylcellulose) (HPC)
[4] = dose: 400.0 mg/kg/injection, schedule: Q04DX003 (ip), vehicle: Klucel (hydroxypropylcellulose) (HPC)

Question: How did the T/C (dose: 7.5 mg/kg/injection, schedule: Q01DX005 (ip), vehicle: saline with Tween-80) turn out when `Cc1ccoc1` was run?
Answer: 105 % of control

Question: What about the T/C (dose: 15.0 mg/kg/injection, schedule: Q01DX005 (ip), vehicle: saline with Tween-80) of the same compound?
Answer: 100 % of control

Question: And the T/C (dose: 30.0 mg/kg/injection, schedule: Q01DX005 (ip), vehicle: saline with Tween-80)?
Answer: 97 % of control

Question: What about the T/C (dose: 60.0 mg/kg/injection, schedule: Q01DX005 (ip), vehicle: saline with Tween-80) of the same compound?
Answer: 98 % of control

Question: And the T/C (dose: 120.0 mg/kg/injection, schedule: Q01DX005 (ip), vehicle: saline with Tween-80)?
Answer: 101 % of control

Question: And the T/C (dose: 240.0 mg/kg/injection, schedule: Q01DX005 (ip), vehicle: saline with Tween-80)?
Answer: 106 % of control

Question: `CCOc1ccc(C(C)c2cc3c(cc2OCC(=O)O)OCO3)cc1` (stereo not given) was tested. Which T/C [1] did it give?
Answer: 109 % of control

Question: What about the T/C (dose: 100.0 mg/kg/injection, schedule: Q01DX005 (ip), vehicle: saline with Tween-80) of the same compound?
Answer: 90 % of control

Question: What does the source list for `O=C(CCSCCC(=O)N/N=C(\CO)C(O)C(O)C(O)CO)N/N=C(/CO)C(O)C(O)C(O)CO` (stereo not given)?
Answer: T/C (dose: 50.0 mg/kg/injection, schedule: Q01DX005 (ip), vehicle: suspension in saline): 99 % of control; T/C (dose: 100.0 mg/kg/injection, schedule: Q01DX005 (ip), vehicle: suspension in saline): 104 % of control; T/C (dose: 200.0 mg/kg/injection, schedule: Q01DX005 (ip), vehicle: suspension in saline): 97 % of control

Question: What does the source list for `Cc1ccc(S(=O)(=O)NC(=O)NC(=S)c2cccs2)cc1`?
Answer: T/C (dose: 50.0 mg/kg/injection, schedule: Q01DX001 (ip), vehicle: saline with Tween-80): 98 % of control; T/C (dose: 100.0 mg/kg/injection, schedule: Q01DX001 (ip), vehicle: saline with Tween-80): 97 % of control; T/C (dose: 200.0 mg/kg/injection, schedule: Q01DX001 (ip), vehicle: saline with Tween-80): 91 % of control

Question: Which results are given for `Clc1ccc(C(c2ccccc2Cl)C(Cl)Cl)cc1` (stereo not given)?
Answer: T/C (dose: 8.0 mg/kg/injection, schedule: Q03HX024 (ip), vehicle: saline): 105 % of control; T/C (dose: 16.0 mg/kg/injection, schedule: Q03HX008 (ip), vehicle: saline): 100 % of control; T/C (dose: 16.0 mg/kg/injection, schedule: Q03HX016 (ip), vehicle: saline): 100 % of control; T/C (dose: 16.0 mg/kg/injection, schedule: Q03HX024 (ip), vehicle: saline): 100 % of control; T/C (dose: 32.0 mg/kg/injection, schedule: Q03HX008 (ip), vehicle: saline): 100 % of control; T/C (dose: 32.0 mg/kg/injection, schedule: Q03HX016 (ip), vehicle: saline): 100 % of control; T/C (dose: 32.0 mg/kg/injection, schedule: Q03HX024 (ip), vehicle: saline): 100 % of control; T/C (dose: 64.0 mg/kg/injection, schedule: Q01DX009 (ip), vehicle: saline): 90 % of control; T/C (dose: 64.0 mg/kg/injection, schedule: Q03HX008 (ip), vehicle: saline): 100 % of control; T/C (dose: 64.0 mg/kg/injection, schedule: Q03HX016 (ip), vehicle: saline): 115 % of control; T/C (dose: 64.0 mg/kg/injection, schedule: Q03HX024 (ip), vehicle: saline): 110 % of control; T/C (dose: 64.0 mg/kg/injection, schedule: Q04DX003 (ip), vehicle: saline): 104 % of control; T/C (dose: 128.0 mg/kg/injection, schedule: Q01DX001 (ip), vehicle: saline): 109 % of control; T/C (dose: 128.0 mg/kg/injection, schedule: Q01DX009 (ip), vehicle: saline): 90 % of control; T/C (dose: 128.0 mg/kg/injection, schedule: Q03HX008 (ip), vehicle: saline): 100 % of control; T/C (dose: 128.0 mg/kg/injection, schedule: Q03HX016 (ip), vehicle: saline): 110 % of control; T/C (dose: 128.0 mg/kg/injection, schedule: Q03HX024 (ip), vehicle: saline): 100 % of control; T/C (dose: 128.0 mg/kg/injection, schedule: Q04DX003 (ip), vehicle: saline): 100 % of control; T/C (dose: 128.0 mg/kg/injection, schedule: Q08DX002 (ip), vehicle: saline): 100 % of control; T/C (dose: 256.0 mg/kg/injection, schedule: Q01DX001 (ip), vehicle: saline): 100 % of control; T/C (dose: 256.0 mg/kg/injection, schedule: Q01DX001 (oral), vehicle: saline): 104 % of control; T/C (dose: 256.0 mg/kg/injection, schedule: Q01DX009 (ip), vehicle: saline): 95 % of control; T/C (dose: 256.0 mg/kg/injection, schedule: Q01DX009 (oral), vehicle: saline): 104 % of control; T/C (dose: 256.0 mg/kg/injection, schedule: Q04DX003 (ip), vehicle: saline): 100 % of control; T/C (dose: 256.0 mg/kg/injection, schedule: Q04DX003 (oral), vehicle: saline): 100 % of control; T/C (dose: 256.0 mg/kg/injection, schedule: Q08DX002 (ip), vehicle: saline): 90 % of control; T/C (dose: 512.0 mg/kg/injection, schedule: Q01DX001 (ip), vehicle: saline): 109 % of control; T/C (dose: 512.0 mg/kg/injection, schedule: Q01DX001 (oral), vehicle: saline): 100 % of control; T/C (dose: 512.0 mg/kg/injection, schedule: Q01DX009 (ip), vehicle: saline): 86 % of control; T/C (dose: 512.0 mg/kg/injection, schedule: Q01DX009 (oral), vehicle: saline): 109 % of control; T/C (dose: 512.0 mg/kg/injection, schedule: Q04DX003 (ip), vehicle: saline): 90 % of control; T/C (dose: 512.0 mg/kg/injection, schedule: Q04DX003 (oral), vehicle: saline): 100 % of control; T/C (dose: 512.0 mg/kg/injection, schedule: Q08DX002 (ip), vehicle: saline): 100 % of control; T/C (dose: 1024.0 mg/kg/injection, schedule: Q01DX001 (ip), vehicle: saline): 100 % of control; T/C (dose: 1024.0 mg/kg/injection, schedule: Q01DX001 (oral), vehicle: saline): 100 % of control; T/C (dose: 1024.0 mg/kg/injection, schedule: Q01DX009 (oral), vehicle: saline): 100 % of control; T/C (dose: 1024.0 mg/kg/injection, schedule: Q04DX003 (ip), vehicle: saline): 90 % of control; T/C (dose: 1024.0 mg/kg/injection, schedule: Q04DX003 (oral), vehicle: saline): 100 % of control; T/C (dose: 1024.0 mg/kg/injection, schedule: Q08DX002 (ip), vehicle: saline): 104 % of control; T/C (dose: 2048.0 mg/kg/injection, schedule: Q01DX001 (oral), vehicle: saline): 109 % of control; T/C (dose: 2048.0 mg/kg/injection, schedule: Q01DX009 (oral), vehicle: saline): 100 % of control; T/C (dose: 2048.0 mg/kg/injection, schedule: Q04DX003 (oral), vehicle: saline): 100 % of control

Question: Which results are given for `O=CN(CCO)CCO`?
Answer: T/C (dose: 50.0 mg/kg/injection, schedule: Q01DX005 (ip), vehicle: saline): 107 % of control; T/C (dose: 100.0 mg/kg/injection, schedule: Q01DX005 (ip), vehicle: saline): 94 % of control; T/C (dose: 200.0 mg/kg/injection, schedule: Q01DX005 (ip), vehicle: saline): 114 % of control

Question: What does the source list for `CC1c2ccccc2CC(CCN(C)C)c2ccccc21` (stereo not given)?
Answer: T/C (dose: 6.25 mg/kg/injection, schedule: Q01DX005 (ip), vehicle: saline with Tween-80): 101 % of control and 102 % of control and 106 % of control; T/C (dose: 12.5 mg/kg/injection, schedule: Q01DX005 (ip), vehicle: saline with Tween-80): 101 % of control and 109 % of control (2×); T/C (dose: 25.0 mg/kg/injection, schedule: Q01DX005 (ip), vehicle: saline with Tween-80): 109 % of control and 97 % of control; T/C [1]: 110 % of control

Question: With `S=C(N/N=C1\CSCc2ccccc21)Nc1cc(Cl)ccc1Cl` as the compound, how does the T/C (dose: 12.5 mg/kg/injection, schedule: Q01DX009 (ip), vehicle: saline with Tween-80) read?
Answer: 87 % of control

Question: And the T/C (dose: 25.0 mg/kg/injection, schedule: Q01DX009 (ip), vehicle: saline with Tween-80)?
Answer: 90 % of control

Question: And the T/C (dose: 50.0 mg/kg/injection, schedule: Q01DX009 (ip), vehicle: saline with Tween-80)?
Answer: 100 % of control

Question: Which results are given for `C=CCc1cc2c(cc1Cc1ccc(OC)cc1)OCO2`?
Answer: T/C (dose: 50.0 mg/kg/injection, schedule: Q01DX005 (ip), vehicle: distilled water + alcohol): 109 % of control; T/C (dose: 100.0 mg/kg/injection, schedule: Q01DX005 (ip), vehicle: distilled water + alcohol): 104 % of control; T/C (dose: 200.0 mg/kg/injection, schedule: Q01DX005 (ip), vehicle: distilled water + alcohol): 109 % of control

Question: Which T/C (dose: 50.0 mg/kg/injection, schedule: Q01DX005 (ip), vehicle: Klucel (hydroxypropylcellulose) (HPC)) does the source give for `Fc1ccc(C(Nc2nncs2)Nc2nncs2)cc1` here?
Answer: 111 % of control

Question: What about the T/C (dose: 200.0 mg/kg/injection, schedule: Q01DX005 (ip), vehicle: Klucel (hydroxypropylcellulose) (HPC)) of the same compound?
Answer: 152 % of control

Question: Which T/C [2] does the source give for `O=C1OCCOCCSCCOCCOC(=O)c2cccc1n2` here?
Answer: 101 % of control

Question: And the T/C [3]?
Answer: 102 % of control

Question: What about the T/C [4] of the same compound?
Answer: 100 % of control

Question: Which T/C [2] does the source give for `COC(=O)C1(C)CCC=CC1Sc1ccccc1` (stereo not given) here?
Answer: 100 % of control

Question: And the T/C [3]?
Answer: 105 % of control

Question: And the T/C [4]?
Answer: 99 % of control

Question: How did the T/C (dose: 50.0 mg/kg/injection, schedule: Q01DX009 (ip), vehicle: Klucel (hydroxypropylcellulose) (HPC)) turn out when `CCCCN1C(=O)C(=O)N(Cc2ccco2)C1=O` was run?
Answer: 98 % of control

Question: What about the T/C (dose: 100.0 mg/kg/injection, schedule: Q01DX009 (ip), vehicle: Klucel (hydroxypropylcellulose) (HPC)) of the same compound?
Answer: 104 % of control

Question: And the T/C (dose: 200.0 mg/kg/injection, schedule: Q01DX009 (ip), vehicle: Klucel (hydroxypropylcellulose) (HPC))?
Answer: 106 % of control
